Literature values in patent US20240384361A1, “LONG-TERM SURROGATE VIRUS ASSAYS AND METHODS” (priority 2021, published 2024).

Legend:
ASFV [1] = system: ASFV
ASFV [2] = system: ASFV; remark: listed apart in the source

SMILES	virus inactivation on wood surfaces (ASFV [1])	ASFV infectivity in feed matrices (ASFV [2])
O=C(O)CC(O)(CC(=O)O)C(=O)O [citric acid]	completely inactivated	
CCCCCCCCCCCC(=O)OCC(O)CO (centres unmarked) [glycerol monolaurate]		reduce ASFV infectivity
